Results: paper PMC8377444 (Pharmacology Research & Perspectives, 2021)

Assays:
[1] = Safety and tolerability assessments, whole study; format: in vivo, human
[2] = Treatment-emergent adverse events, single ascending dose; format: in vivo, human
[3] = Safety under fed conditions; format: in vivo, human; conditions: single dose 25 mg
[4] = Plasma pharmacokinetics, single 25 mg dose fed / food effect; format: in vivo, human; conditions: high-fat, high-calorie meal
TLR7/8 [5] = test: Ex vivo R848-stimulated whole blood cytokine release immunoassay, IL-6 secretion; format: in vivo, human
mouse models of SLE = conditions: cited from earlier work
TLR7/8 [6] = conditions: in vitro and ex vivo; cited from earlier work

N#Cc1ccc(N2C[C@H](N)C[C@H](C(F)(F)F)C2)c2cccnc12 [enpatoran]
Dose dependence of TEAEs ([1]; Parts A and B): No dose‐dependent TEAEs were observed
Severity of TEAEs ([1]; Parts A and B, all TEAEs): mild to moderate
Tolerability ([1]; single and multiple oral doses up to 200 mg, fasting or fed): well tolerated
Deaths ([1]; whole study): no deaths
Discontinuations due to TEAEs ([1]; whole study): no discontinuations due to TEAEs
Serious AEs ([1]; whole study): No serious AEs occurred
Changes in laboratory values, vital signs or ECGs ([1]; whole study period): No clinically relevant changes
Study intervention-related flatulence ([2]; SAD cohorts): three
TEAE: Flatulence ([2]; single dose 3 mg, n = 6): 4 (66.7) Number (%) of participants
TEAEs reported during Part C [3]: no TEAEs were reported
Decrease in CL/F, fed versus fasting [4]: approximately 25%
Inhibition of IL-6 secretion maintained throughout the dosing interval (TLR7/8 [5]; 200 mg QD, 25 mg BID and 50 mg BID): At least 60%
Dose with maximum inhibition of ex vivo-stimulated IL-6 secretion (TLR7/8 [5]; doses up to 200 mg): 200 mg
Time of peak TLR7/8 target modulation (TLR7/8 [5]; post-dose): 2 h
Disease activity in mouse models of SLE (mouse models of SLE): suppress disease activity
Sustained inhibition of IL-6 (mouse models of SLE; lowest efficacious dose in mouse models of SLE): 60%
Activation of TLR7/8 (TLR7/8 [6]): inhibit the activation of TLR7/8
